Assay results reported in patent US20170119776A1, “CHIRAL 2,5-DISUBSTITUTED CYCLOPENTANECARBOXYLIC ACID DERIVATIVES AND USE THEREOF” (BAYER PHARMA AKTIENGESELLSCHAFT, priority 2014, published 2017).
pIC50: −log10 of the molar value.

How the values were obtained:
Type in all cases: biochemical
MMP-9 = target: T1, MMP-9 (Homo sapiens, UniProt P14780); test: In vitro MMP-9 inhibition test
T1 construct: purchased R&D Systems 911-MP
From the text: (§1) The activity strength of the compounds according to the invention towards other MMPs (and therefore their selectivity) is likewise ascertained in in vitro inhibition tests. The MMP-mediated amidolytic cleavage of a suitable peptide substrate also leads here to a fluorescent light increase. The signal intensity of the fluorescent light is directly proportional to the enzyme activity. The active concentration of a test compound at which half of the enzyme is inhibited (50% signal intensity of the fluorescent light) is given as IC50 value.
(§2) Recombinant MMP-9 (R&D Systems, 911-MP) is chemically activated in accordance with the manufacturer's instructions using APMA. 1 μl of the test compound to be analysed (as a solution in DMSO, suitable concentrations e.g. 1 nM to 30 μM) is pipette into 24 μl of activated enzyme (final concentration e.g. 0.1 nM) in reaction buffer (50 mM Tris/HCl pH 7.5, 10 mM CaCl2, 150 mM NaCl, 0.05% Brij®-35) in a white 384-hole microtiter plate (MTP). The enzymatic reaction is started by adding the intramolecularly quenched substrate Mca-Pro-Leu-Gly-Leu-Dpa(Dnp)-Ala-Arg-NH2 (final concentration e.g. 10 μM; R&D Systems, ES-001), such that a total test volume of 50 μl results. The progress of the MMP-9 reaction is measured by measuring the fluorescence intensity (excitation 320 nm, emission 410 nm) over a suitable period (e.g. over 120 min at a temperature of 32° C.).
(§3) The IC50 values were determined for racemates and enantiomers from differently generated DMSO stock solutions. Whereas an automatically produced DMSO stock solution from the internal substance logistics was used for racemates by means of a standard method, in the case of enantiomers a freshly produced, manually prepared DMSO stock solution was used in each case for a more precise direct comparison of the enantiomers with one another.

MMP-10 = target: T2, MMP-10 (Homo sapiens, UniProt P09238); test: In vitro MMP-10 inhibition test
T2 construct: purchased R&D Systems 910-MP
From the text: as §1
as §2, with “MMP-10” for “MMP-9”, “910-MP)” for “911-MP)”, “2” for “0.1”, “Mca-Arg-Pro-Lys-Pro-Val-Glu-Nval-Trp-Arg-Lys(Dnp)-NH2” for “Mca-Pro-Leu-Gly-Leu-Dpa(Dnp)-Ala-Arg-NH2”, “ES-002),” for “ES-001),”
as §3

MMP-13 = target: T3, MMP-13 (Homo sapiens, UniProt P45452); test: In vitro MMP-13 inhibition test
T3 construct: purchased R&D Systems 511-MP
From the text: as §1
as §2, with “MMP-13” for “MMP-9”, “511-MP)” for “911-MP)”
as §3

MMP-7 of the mouse = target: T4, MMP-7 of the mouse (Mus musculus, UniProt Q10738); test: In vitro MMP-7 inhibition test of the mouse
T4 construct: purchased R&D Systems 2967-MP
T4 sequence (Q10738 95-264): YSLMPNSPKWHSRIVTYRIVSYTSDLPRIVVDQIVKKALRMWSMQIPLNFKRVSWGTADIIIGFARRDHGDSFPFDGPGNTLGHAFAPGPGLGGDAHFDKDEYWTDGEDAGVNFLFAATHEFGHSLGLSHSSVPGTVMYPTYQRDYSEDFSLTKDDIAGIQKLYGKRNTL
From the text: as §1
Recombinant MMP-7 of the mouse (R&D Systems, 2967-MP) is chemically activated in accordance with the manufacturer's instructions using APMA. 1 μl of the test compound to be analysed (as a solution in DMSO, suitable concentrations e.g. 1 nM to 30 μM) is pipetted into 24 μl of activated enzyme (final concentration e.g. 0.5 nM) in reaction buffer (50 mM Tris/HCl pH 7.5, 10 mM CaCl2, 150 mM NaCl, 0.05% Brij®-35) in a white 384-hole microtiter plate (MTP). The enzymatic reaction is started by adding the intramolecularly quenched substrate Mca-Lys-Pro-Leu-Gly-Leu-Dpa(Dnp)-Ala-Arg-NH2 (final concentration e.g. 5 μM; R&D Systems, ES-010), such that a total test volume of 50 μl results. The progress of the MMP-7 reaction is measured by measuring the fluorescence intensity (excitation 320 nm, emission 410 nm) over a suitable period (e.g. over 120 min at a temperature of 32° C.).
Tables 3A and 3B below give the IC50 values from these tests for the inhibition of rodent MMPs for representative embodiment examples of the present invention and also for two structurally related comparison compounds from the prior art (as racemate and separated enantiomer)→(in part as average values from several independent individual determinations and rounded to two significant places). The IC50 values were determined for racemates and enantiomers from differently generated DMSO stock solutions. Whereas an automatically created DMSO stock solution from the internal substance logistics was used for racemates by means of a standard method, in the case of enantiomers, in each case a freshly produced, manually prepared DMSO stock solution was used for a more precise direct comparison of the enantiomers with one another.

T1 sequence (P14780 107-707 limits assumed): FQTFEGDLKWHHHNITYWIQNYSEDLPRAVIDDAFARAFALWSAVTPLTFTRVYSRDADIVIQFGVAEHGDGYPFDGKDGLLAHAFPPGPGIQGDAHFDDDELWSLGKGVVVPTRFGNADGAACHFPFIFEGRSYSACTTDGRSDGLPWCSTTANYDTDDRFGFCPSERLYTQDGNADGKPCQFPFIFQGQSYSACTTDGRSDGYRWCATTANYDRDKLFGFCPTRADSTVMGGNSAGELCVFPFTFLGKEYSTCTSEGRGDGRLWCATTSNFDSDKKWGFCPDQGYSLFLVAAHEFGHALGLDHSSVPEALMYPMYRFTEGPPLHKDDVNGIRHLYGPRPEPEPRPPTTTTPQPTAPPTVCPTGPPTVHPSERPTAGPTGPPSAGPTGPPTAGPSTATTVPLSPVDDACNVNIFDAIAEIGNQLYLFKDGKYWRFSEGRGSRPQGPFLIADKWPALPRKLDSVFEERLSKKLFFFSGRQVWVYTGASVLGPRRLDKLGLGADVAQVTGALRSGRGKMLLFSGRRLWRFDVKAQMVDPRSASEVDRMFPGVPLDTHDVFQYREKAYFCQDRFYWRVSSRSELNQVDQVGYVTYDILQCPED
T2 sequence (P09238 99-476): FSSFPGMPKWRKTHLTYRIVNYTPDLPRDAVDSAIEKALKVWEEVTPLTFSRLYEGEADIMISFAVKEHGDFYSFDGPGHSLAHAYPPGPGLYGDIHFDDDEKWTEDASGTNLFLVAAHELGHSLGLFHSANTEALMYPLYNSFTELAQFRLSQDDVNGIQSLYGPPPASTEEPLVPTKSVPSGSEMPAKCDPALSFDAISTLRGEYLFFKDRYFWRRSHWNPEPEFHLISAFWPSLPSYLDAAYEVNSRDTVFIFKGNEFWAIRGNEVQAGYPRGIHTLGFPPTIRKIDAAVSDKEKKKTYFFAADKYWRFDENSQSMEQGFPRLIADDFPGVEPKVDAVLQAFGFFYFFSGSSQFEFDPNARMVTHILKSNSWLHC

Row | SMILES | pIC50 (MMP-9) | pIC50 (MMP-10) | pIC50 (MMP-13) | pIC50 (MMP-7 of the mouse)
1 | O=C(O)[C@H]1[C@H](Cn2nnc3ccccc3c2=O)CC[C@@H]1C(=O)c1ccc(OCc2ccccc2)cc1 [Example 2, (+)-(1S,2S,5R)-2-[4-(Benzyloxy)benzoyl]-5-[(4-oxo-1,2,3-benzotriazin-3(4H)-yl)methyl]cyclopentanecarboxylic acid] | 7.64 | 7.76 | 7.84 | 7.66
2 | O=C(O)[C@@H]1[C@@H](Cn2nnc3ccccc3c2=O)CC[C@H]1C(=O)c1ccc(-c2ccc(Cl)cc2)cc1 (single isomer, unassigned; enantiomer 2) [Comparative Example A-3, (1RS,2RS,5SR)-2-[(4′-Chlorobiphenyl-4-yl)carbonyl]-5-[(4-oxo-1,2,3-benzotriazin-3(4H)-yl)methyl]cyclopentanecarboxylic acid (enantiomer 2)] | 8.96 | > 9.21 | 9.09 | 8.21
3 | O=C(O)[C@H]1[C@H](Cn2nnc3ccccc3c2=O)CC[C@@H]1C(=O)c1ccc(-c2ccc(Cl)cc2)cc1 (racemic) [Comparative Example A-1, (1RS,2RS,5SR)-2-[(4′-chlorobiphenyl-4-yl)carbonyl]-5-[(4-oxo-1,2,3-benzotriazin-3(4H)-yl)methyl]cyclopentanecarboxylic acid (racemate)] | 8.72 | 8.34 | 8.74 | 7.82

The next lines start with the values.

Row | pIC50 (MMP-9) | pIC50 (MMP-10) | pIC50 (MMP-13) | pIC50 (MMP-7 of the mouse) | SMILES
4 | 6.20 | 5.72 | 6.44 | 6.28 | CCCCCOc1ccc(C(=O)CC(CCn2nnc3ccccc3c2=O)C(=O)O)cc1 (single isomer, unassigned; enantiomer 1) [Comparative Example B-2, (+)-4-Oxo-2-[2-(4-oxo-1,2,3-benzotriazin-3(4H)-yl)ethyl]-4-[4-(pentyloxy)phenyl]butanoic acid (enantiomer 1)]
5 | 5.85 | 5.24 | 5.74 | 5.85 | CCCCCOc1ccc(C(=O)CC(CCn2nnc3ccccc3c2=O)C(=O)O)cc1 (racemic) [Comparative Example B-1, (+/−)-4-Oxo-2-[2-(4-oxo-1,2,3-benzotriazin-3(4H)-yl)ethyl]-4-[4-(pentyloxy)phenyl]butanoic acid (racemate)]
6 | 7.52 | 7.68 | 7.52 | 7.34 | O=C(O)[C@H]1[C@H](Cn2nnc3ccccc3c2=O)CC[C@@H]1C(=O)c1ccc(OCc2ccccc2)cc1 (racemic) [Example 1, (+/−)-(1RS,2RS,5SR)-2-[4-(Benzyloxy)benzoyl]-5-[(4-oxo-1,2,3-benzotriazin-3(4H)-yl)methyl]cyclopentanecarboxylic acid (racemate)]
